In ChEMBL document CHEMBL1201862, “PubChem BioAssay data set” (2004):
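Exposure lasted 48 hours, with cells grown in 96-well plates and compounds tested at five concentrations. At the GI50, growth is halved.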 Calls of active or inactive are those of the source. Rule as the data show it: active = GI50 up to about 1.1 µM and inactive = higher. Non-standard residues stand in square brackets, D forms with d. Residues, ends and D or L forms follow the SMILES beside them. *: point of attachment. X30 = COC1=CC(=O)N(C(=O)[C@@H](O*)C(C)C)[C@H]1Cc1ccccc1; NMeL = CN[C@@H](CC(C)C)C(=O)O; Cbz = O=C(OCc1ccccc1)*

Assays:
Assay in all cases: inhibition of tumour cell growth, NCI panel, 48 h
Malme-3M = test system: Malme-3M
T47D = test system: T47D
SN12C = test system: SN12C
MDA-MB-231 = test system: MDA-MB-231
OVCAR-5 = test system: OVCAR-5
A498 = test system: A498
SF-539 = test system: SF-539
SNB-75 = test system: SNB-75
HCT-116 = test system: HCT-116
NCI-H522 = test system: NCI-H522
A549 = test system: A549
NCI-H23 = test system: NCI-H23
KM12 = test system: KM12
SK-MEL-5 = test system: SK-MEL-5
PC-3 = test system: PC-3
COLO 205 = test system: COLO 205
HCT-15 = test system: HCT-15
SK-OV-3 = test system: SK-OV-3
HCC 2998 = test system: HCC 2998

Structure (SMILES)	GI50 (Malme-3M)	GI50 (T47D)	GI50 (SN12C)	GI50 (MDA-MB-231)	GI50 (OVCAR-5)	GI50 (A498)	GI50 (SF-539)	GI50 (SNB-75)	GI50 (HCT-116)	GI50 (NCI-H522)	GI50 (A549)	GI50 (NCI-H23)	GI50 (KM12)	GI50 (SK-MEL-5)	GI50 (PC-3)	GI50 (COLO 205)	GI50 (HCT-15)	GI50 (SK-OV-3)	GI50 (HCC 2998)
CCN1CCC(O)(/C=C/c2ccc(C(C)C)cc2)C(C(=O)/C=C/c2ccc(C(C)C)cc2)C1 (configuration not stated)	5.02 µM (inactive)	2.35 µM (inactive)	2.47 µM (inactive)	1.87 µM (inactive)	4.34 µM (inactive)	6.38 µM (inactive)	2.29 µM (inactive)	4.62 µM (inactive)	1.75 µM (inactive)	2.1 µM (inactive)	3.37 µM (inactive)	2.38 µM (inactive)	1.85 µM (inactive)	4.42 µM (inactive)	3.52 µM (inactive)	2.45 µM (inactive)	2 µM	14 µM (inactive)	1.81 µM (inactive)
COc1cc(C2c3cc4c(cc3OC(Nc3ccccc3)C2C)OCO4)cc(OC)c1OC (configuration not stated)	0.166 µM (active)	42.3 µM (inactive)	0.659 µM (active)	2.8 µM (inactive)		0.324 µM (active)	0.262 µM (active)	3.08 µM (inactive)	0.42 µM (active)	0.337 µM (active)	1.11 µM (active)	0.991 µM (active)	0.48 µM (active)		0.468 µM (active)	0.415 µM (active)	0.494 µM	1.08 µM (active)	1.08 µM (active)
Cc1sc2ccccc2[n+]1CCC(=O)O	> 100 µM (inactive)	> 100 µM (inactive)	> 100 µM (inactive)	> 100 µM (inactive)	> 100 µM (inactive)	> 100 µM (inactive)	> 100 µM (inactive)	> 100 µM (inactive)	> 100 µM (inactive)	> 100 µM (inactive)	> 100 µM (inactive)	> 100 µM (inactive)	> 100 µM (inactive)	> 100 µM (inactive)	> 100 µM (inactive)	> 100 µM (inactive)	> 100 µM	> 100 µM (inactive)	
C/C(CC(O)(C(F)(F)F)C(F)(F)F)=N\NC(N)=O	> 10 µM (inactive)	> 10 µM (inactive)	> 10 µM (inactive)	> 10 µM (inactive)		> 10 µM (inactive)	> 10 µM (inactive)	> 10 µM (inactive)	> 10 µM (inactive)	> 10 µM (inactive)	> 10 µM (inactive)	> 10 µM (inactive)	> 10 µM (inactive)	> 10 µM (inactive)	> 10 µM (inactive)	> 10 µM (inactive)	> 10 µM	> 10 µM (inactive)	> 10 µM (inactive)
N#CC1(C#N)C2C=CC(C3CC=CC32)C1(C#N)C#N (configuration not stated)	2.79 µM (inactive)	3.38 µM (inactive)	10.4 µM (inactive)	9.79 µM (inactive)	8.39 µM (inactive)	9.84 µM (inactive)	9.66 µM (inactive)	> 10 µM (inactive)	1.93 µM (inactive)	1.22 µM (inactive)	10.7 µM (inactive)	8.32 µM (inactive)	> 10 µM (inactive)	7.73 µM (inactive)	8.59 µM (inactive)	2.07 µM (inactive)	1.98 µM	45 µM (inactive)	> 50 µM (inactive)
CC(C)OP(=O)(OC(C)C)C(C(C)C)N(C)/C(N)=N/C#N (configuration not stated)	> 100 µM (inactive)	> 100 µM (inactive)	> 100 µM (inactive)	> 100 µM (inactive)		> 100 µM (inactive)	> 100 µM (inactive)	> 100 µM (inactive)	> 100 µM (inactive)	> 100 µM (inactive)	> 100 µM (inactive)	> 100 µM (inactive)	> 100 µM (inactive)	> 100 µM (inactive)	> 100 µM (inactive)	> 100 µM (inactive)	> 100 µM	> 100 µM (inactive)	> 100 µM (inactive)
CC(=O)NC1=C(C)C(=O)c2c(nc3n2CC[C@H]3OC(C)=O)C1=O	1.51 µM (inactive)	0.238 µM (active)	1.49 µM (inactive)	1.37 µM (inactive)	2.96 µM (inactive)	16.8 µM (inactive)	2.38 µM (inactive)	3.13 µM (inactive)	1.3 µM (inactive)	1.54 µM (inactive)	8.32 µM (inactive)	2.61 µM (inactive)	1.71 µM (inactive)	3.09 µM (inactive)	0.637 µM (active)	1.91 µM (inactive)	3.58 µM		2.52 µM (inactive)
COc1cccc(/C=N/n2c(Cc3ccccc3)n[nH]c2=O)c1	> 67.6 µM (inactive)	> 73.6 µM (inactive)	> 19.7 µM (inactive)	> 100 µM (inactive)	> 100 µM (inactive)	> 100 µM (inactive)	> 100 µM (inactive)	29.4 µM (inactive)	> 100 µM (inactive)	16.8 µM (inactive)	> 100 µM (inactive)	> 100 µM (inactive)	> 76.2 µM (inactive)	33.9 µM (inactive)	> 100 µM (inactive)	> 100 µM (inactive)	> 100 µM	> 100 µM (inactive)	> 100 µM (inactive)
COC(=O)/C=C/c1ccccc1N=[S@](C)(=O)c1ccc(C)cc1	14 µM (inactive)	31.8 µM (inactive)	34.9 µM (inactive)	23.8 µM (inactive)	36.1 µM (inactive)	8.41 µM (inactive)	21.8 µM (inactive)	6.21 µM (inactive)	15.3 µM (inactive)	2.86 µM (inactive)	27.9 µM (inactive)	28.1 µM (inactive)	8.53 µM (inactive)	5.62 µM (inactive)	13.4 µM (inactive)	8.34 µM (inactive)	6.14 µM	30.3 µM (inactive)	24.2 µM (inactive)
CCCCC1CCCCCCc2[nH]c(/C=C3\N=C(c4ccc[nH]4)C=C3OC)cc21 (configuration not stated)	0.0241 µM (active)	< 0.01 µM (active)	< 0.0185 µM (active)	< 0.024 µM (active)	0.116 µM (active)	0.515 µM (active)	0.0308 µM (active)	< 0.0306 µM (active)	< 0.01 µM (active)	< 0.016 µM (active)	< 0.0139 µM (active)	< 0.0221 µM (active)	< 0.01 µM (active)	0.0128 µM (active)	< 0.0119 µM (active)	< 0.011 µM (active)	< 0.01 µM	0.326 µM (active)	< 0.01 µM (active)
COC1=CC(=O)N(C(=O)[C@@H](OC(=O)[C@@H]2CCCN2C(=O)[C@@H]2CCCN2C(=O)[C@H](CC(C)C)N(C)C(=O)[C@@H](NC(=O)[C@@H](NC(=O)OCc2ccccc2)C(C)C)C(C)C)C(C)C)[C@H]1Cc1ccccc1 (Cbz-VV[NMeL]PP-X30)	> 100 µM (inactive)	68.2 µM (inactive)	34.8 µM (inactive)	15 µM (inactive)	> 100 µM (inactive)	19.6 µM (inactive)	15 µM (inactive)	2.37 µM (inactive)	44.6 µM (inactive)	> 100 µM (inactive)	76.7 µM (inactive)	> 100 µM (inactive)	> 100 µM (inactive)		11.2 µM (inactive)	> 100 µM (inactive)	> 100 µM	31.3 µM (inactive)	> 100 µM (inactive)
